Results taken from patent US20260097133A1, “EPIGENETIC EDITING TOOL FOR TARGETING HEPATITIS B VIRUS GENE” (priority 2023, published 2026).

Columns and labels:
[1] = tested on: HBV genome (type A, GenBank: AF305422.1); assay: Knockdown of HBV markers in transgenic HBV mice; assay type: in vivo, mice (C57BL/6-HBV); conditions: after single administration
Description: Transgenic HBV mice (Beijing Vitalstar Biotechnology Co., Ltd., C57BL/6-HBV, subsequent feeding and testing were completed by Beijing Vitalstar) were used in this validation experiment. The genome of this strain of mice was inserted with a 1.28-fold length HBV genome (type A, GenBank: AF305422.1). […] Therefore, this sgRNA was used to prepare the pharmaceutical composition provided in the present application and perform epigenetic editing in transgenic HBV mice to validate the inhibitory effect of this drug on the expression of integrated HBV genes in an in vivo model.
The composition comprising the mRNA encoding EPIREG (sequence: SEQ ID NO: 1191) and sgRNA numbered D99 (BSG35) (mass ratio of mRNA to sgRNA of 1:1) was delivered to transgenic HBV mice (at a dose of 10 mg/kg) by means of tail vein injection of lipid nanoparticles (LNPs) (LNP preparation reference: https://doi.org/10.1038/s41586-021-03534-y). PBS (200 ul) was injected as a negative control, and the antisense oligonucleotide (ASO) drug Bepirovirsen (GSK3228836, dose of 200 mg/kg) was used as a positive control, which could target all HBV RNAs and thus reduce the expression of HBV antigens. After administration, blood was collected regularly in each group to detect the levels of HBV surface antigen (HBsAg) and core antigen (HBcAg/HBeAg) secreted in serum, and the level of HBV DNA was detected by qPCR. […]

[2] = tested on: HBx reporter cell line of type B HBV; assay: sgRNA functional screening in HBx reporter cell line (293 FT, P2A-EGFP), type B HBV; assay type: cell-based, type B HBV (serotype adw); conditions: for editing effects in the HBx reporter cell line: type B HBV, different time points after transfection of EPIREG + sgRNA
Description: (§1) 293 FT was used to construct a reporter cell line for type B, type C and type D HBV surface antigen (HBsAg), core antigen (HBcAg), X protein (HBx) and polymerase (Pol), and the schematic diagram is shown in FIG. 1A. The genomic sequence containing the CpG island and regulatory elements before the protein transcription start site was retained, and the gene sequences of the self-cleaving peptide P2A and EGFP were fused after the 38th amino acid of the HBV surface antigen (HBsAg), the 129th amino acid of the core antigen (HBcAg), the 77th amino acid of the X protein (HBx), and the 177th amino acid of the polymerase (Pol), respectively. The reporter gene was integrated into the 293 FT genome using the PiggyBac transposon system, and a stably transfected cell line was constructed. The intensity of fluorescence was used to reflect the expression level of the protein, thereby quickly performing functional validation and preliminary screening of sgRNAs near the CpG island.
The screening scheme for sgRNA functional validation using the above-mentioned reporter cell line was designed as follows (FIG. 1B): after the reporter cells were plated, the composition EPIREG described in the present application (the domain of the composition was DNMT3A-hDNMT3L-xten80-ZIM3-xten80-dCas9, with an amino acid sequence as set forth in SEQ ID NO: 1194, and a nucleic acid sequence as set forth in SEQ ID NO: 1192 (CDS sequence) and 1193 (plasmid sequence)) containing different sgRNAs was delivered into the cells by transfection, and the two carried red fluorescence and blue fluorescence, respectively. Flow cytometry was used to sort red fluorescent and blue fluorescent double-positive cell populations, which were cultured for a long time. Flow cytometric analysis was performed every week to detect changes in the fluorescence intensity of the reporter cells, which could reflect changes in protein expression levels after epigenetic editing.

[3] = tested on: type D hepatitis B virus (GenBank: U95551); assay: Candidate sgRNA effect validation in HBV-infected primary hepatocytes (PHH), Example 4; assay type: cell-based; conditions: 14 days after infection
Description: A primary hepatocyte (PHH) cell line (WuXi AppTec, M00995-P) infected with type D hepatitis B virus (GenBank: U95551) was used in this validation experiment. Based on the screening results of the three libraries in Example 3 and combined with factors such as conservation, the 20 sgRNAs shown in the table below were selected to prepare the pharmaceutical composition provided in the present application and perform epigenetic editing in the primary hepatocytes to validate the inhibitory effect of the screened candidate sgRNAs on HBV gene expression.
Two days after primary hepatocytes were infected with HBV, lipid nanoparticles (LNPs) (LNP preparation reference: https://doi.org/10.1038/s41586-021-03534-y) were used to deliver the composition comprising the mRNA encoding EPIREG (sequence: SEQ ID NO: 1191) and each of the above-mentioned sgRNAs into primary hepatocytes (administration dose was 2.5 μg/ml, the mass ratio of EPIREG to sgRNA was 1:1). […] The supernatant of the culture medium was collected every two days after administration in each group, and the expression levels of HBV surface antigen (HBsAg), core antigen (HBcAg/HBeAg) and HBV DNA secreted by the cells were detected until 14 days after infection. Cell samples were collected, DNA and RNA in the cells were extracted, and the level of HBV mRNA was detected. […]

[4] = tested on: type D hepatitis B virus (GenBank: U95551); assay: Knockdown of HBV markers in HBV-infected primary hepatocytes (PHH), Example 2; assay type: cell-based
Description: A primary hepatocyte (PHH) cell line infected with type D hepatitis B virus (GenBank: U95551) was used in this example. […] Therefore, these four sgRNAs were used to formulate the pharmaceutical composition provided in the present application and perform epigenetic editing in primary hepatocytes to validate their inhibitory effect on HBV gene expression.
Two days after primary hepatocytes were infected with HBV, lipid nanoparticles (LNPs) (LNP preparation reference: https://doi.org/10.1038/s41586-021-03534-y) were used to deliver a composition containing mRNA encoding EPIREG (SEQ ID NO: 1191) and each sgRNA (BSG29, BSG31, BSG34, BSG35) into primary hepatocytes (administration dose was 2.5 μg/ml, the mass ratio of EPIREG to sgRNA was 1:1). The culture supernatant was collected every two days after administration to detect the expression levels of HBV surface antigen (HBsAg) and core antigen (HBcAg) secreted by the cells. Cell samples were collected until 14 days after administration, DNA and RNA were extracted from the cells, and the levels of HBV mRNA and changes in the cccDNA of the HBV gene were detected. The two groups of positive controls used Myrcludex B (WuXi AppTec, C9023GE070-1/PE0723) and RG7834 (WuXi AppTec, ET25747-14-P1), respectively. Myrcludex B could inhibit HBV infection of hepatocytes, and RG7834 could inhibit the synthesis of viral proteins. RG7834 was stopped on the day 13 of the experiment to observe the rebound of viral antigen proteins. (Specific detection methods were performed according to the following kit instructions: HBsAg ELISA kit, Antu-CL 0310; HBeAg ELISA kit, Antu-CL 0312; RNeasy 96 Kit (12), QIAGEN #74182)

[5] = tested on: HBx reporter cell line of type C HBV; assay: sgRNA functional screening in HBx reporter cell line (293 FT, P2A-EGFP), type C HBV; assay type: cell-based, type C HBV (serotype adr)
Description: as §1, with “island. […]” for “island.”

[6] = tested on: HBx reporter cell line of type D HBV; assay: sgRNA functional screening in HBx reporter cell line (293 FT, P2A-EGFP), type D HBV; assay type: cell-based, type D HBV (serotype ayw)
Description: as §1, with “island. […]” for “island.”

[7] = LNP with EPIREG mRNA + sgRNA 1:1, 2.5 μg/ml, 2-10 days after administration

Substance: Bepirovirsen [ASO]
- persistence of effect on HBV markers [1]: gradually returned to their original levels

Substance: BSG50: sgRNA tested in the HBx reporter cell line of type B HBV (guide GATCGGTAGAGGAGACACAA; listed as DNA, chemistry not given here)
- editing effects in the HBx reporter cell line [2]: extremely high editing effects

Substance: BSG30: sgRNA tested in the HBx reporter cell line of type B HBV (guide CCTGCTGCGAGCAAAACAAG; listed as DNA, chemistry not given here)
- editing effects in the HBx reporter cell line [2]: extremely high editing effects

Substance: AGGAGTTCCGCAGTATGGAT [BSG35]
- inhibition level, comparison among the 20 sgRNAs [3]: highest inhibition level
- inhibitory effect compared with Myrcludex B and RG7834 [4]: close to that of the two reference inhibitors
- inhibitory effect on HBsAg and HBeAg/HBcAg, comparison among sgRNAs ([4]; 2.5 μg/ml): best effect
- expression levels of HBsAg and HBeAg/HBcAg in the supernatant (change) ([4]; 2.5 μg/ml, 2-10 days after administration): different degrees of decrease
- reduction of expression level of HBeAg/HBcAg in the supernatant [4, 7]: about 80%
- reduction of expression level of HBsAg in the supernatant [4, 7]: about 80%
- time at which expression levels of HBsAg and HBeAg/HBcAg became stable ([4]; after single administration): basically stable on the day 4 after administration
- level of viral antigen protein (HBsAg, HBeAg/HBcAg) after end of treatment ([4]; sgRNA: single 4 h treatment, RG7834 stopped on day 13): remained stable at a low level
- inhibitory effects on HBx expression [5]: nearly the best inhibitory effects
- inhibitory effects on HBx expression ([2]; type B HBV HBx reporter cell line): nearly the best inhibitory effects
- editing effects in the HBx reporter cell line [2]: extremely high editing effects
- inhibitory effects on HBx expression [6]: nearly the best inhibitory effects
